The text below walks through data of patent US4551532A, “Ethylene glycol derivatives having anti-protozoan, anti-fungal and anti-tumor activity” (priority 1980, dated 1985).

SMILES strings stand for the structures.

Data set [1] deals with Leptosphaeria salvinii. Description: antifungal activity, serial dilution method. The data set is classed as cell-based. To be noted: Nakataea oryzae; Leptosphaeria salvinii (rice stem rot); 1% glucose-bouillon agar; read-out: MIC.
The test system of data set [2] is human myelocytic leukemia cells HL-60. Description: growth inhibiting effect (IG effect) on HL-60. The format is cell-based. The conditions noted are these: HL-60, 120 h, 5 day culture, read-out: IG effect on HL-60 GD50.
Data set [3] relates to Saccharomyces cerevisiae. Description: antifungal activity, serial dilution method. To be noted: Saccharomyces cerevisiae (brewer's yeast); 1% glucose-bouillon agar; read-out: MIC. The data set is classed as cell-based.
Data set [4] concerns mouse spontaneous myelocytic leukemia cells MI (resistant clone). Description: cell proliferation inhibiting activity against MI cells. The format is cell-based. The conditions noted are these: read-out: cell proliferation inhibiting activity (GD50 value).
Data set [5] relates to Hamigera. The experiment in a line: antimycotic activity, paper disk inhibition circle. The format is cell-based. The conditions noted are these: 48 h; 8 mm paper disk, 3 mg/ml, 37° C., 2 days; read-out: Growth inhibition Hamigera. The method, then: (§1) Referring to the antimycotic activity presented in Table 2, Cryptoccoccus neoformans and others were used as the test microbes, a paper disk (8 mm in diameter) was immersed in an aqueous solution of each test compound having a concentration of 3 mg/ml, air dried and placed on an agar medium, then incubation was conducted at 37° C. for 2 days, and the inhibition circle was measured. When the diameter of the inhibition circle was not larger than 8 mm, 8-10 mm, 10-20 mm, or larger than 20 mm, the activity was judged as -, ±, + or ++, respectively.

In data set [6] the test system is Cryptococcus neoformans. Description: antimycotic activity, paper disk inhibition circle. The format is cell-based. The conditions noted are these: 48 h, 8 mm paper disk, 3 mg/ml, 37° C., 2 days, read-out: Growth inhibition Cryptococcus. The method, then: as §1
The test system of data set [7] is Rhodotorula. Description: antimycotic activity, paper disk inhibition circle. The format is cell-based. The conditions noted are these: 48 h, 8 mm paper disk, 3 mg/ml, 37° C., 2 days, read-out: Growth inhibition Rhodotorula. As to the method: as §1
The subject of data set [8] is Pyricularia oryzae. The experiment in a line: microbe, parasite or virus in culture. The format is cell-based.
The subject of data set [9] is Tetrahymena pyriformis W strain. Description: antiprotozoal activity, broth dilution method. The data set is classed as cell-based. To be noted: 28° C., 44-48 hours, pH 7.0, read-out: Growth inhibition MIC Tetrahymena. On the technique in general: In broth dilution the organism is exposed to a series of concentrations in liquid medium.
Data set [10] relates to Botrytis cinerea. Description: antifungal activity, serial dilution method. The data set is classed as cell-based. To be noted: Botrytis cinerea (gray mold); 1% glucose-bouillon agar.
Data set [11] deals with CDF1 mice. Description: toxicity in CDF1 mice. The format is in vivo, mouse. The conditions noted are these: intraperitoneal 100 mg/kg, observation period one week. The method, then: (§2) The compounds of this invention are of relatively low toxicity. For example, the compound of Example 7 causes no deaths in CDF1 mice even at an intraperitoneal dose of 100 mg/kg (observation period: one week). The hemolytic activity of these compounds is also low in general. For example, in a hemolysis test (with human erythrocytes) by the method of Gottfried et al. [J. Lipid Research, 4, 57 (1963)], the 50% hemolytic concentration of the compound of Example 15 was about 10 μg/ml.

Data set [12] has as its system Cochliobolus miyabeanus. The experiment in a line: antifungal activity, serial dilution method. The conditions noted are these: Bipolaris oryzae. The data set is classed as cell-based.
Data set [13] relates to Aspergillus niger. The experiment in a line: antifungal activity, serial dilution method. The data set is classed as cell-based. The conditions noted are these: Aspergillus niger (black mold); 1% glucose-bouillon agar; read-out: MIC.
Data set [14] has as its system Rauscher virus-induced promyelocytic leukemia cells R453. The experiment in a line: cell proliferation inhibiting activity against R453 cells. To be noted: Mus musculus, read-out: cell proliferation inhibiting activity (GD50 value). The data set is classed as cell-based.
The test system of data set [15] is Colletotrichum lagenarium. The experiment in a line: antifungal activity, serial dilution method. The format is cell-based. The conditions noted are these: Colletotrichum orbiculare; Colletotrichum lagenarium (cucumber anthracnose); 1% glucose-bouillon agar; read-out: MIC.
Data set [16] concerns Sclerotinia sclerotiorum. Description: antifungal activity, serial dilution method. To be noted: Sclerotinia sclerotiorum (kidney bean stem rot); 1% glucose-bouillon agar. The data set is classed as cell-based.
Data set [17] deals with human erythrocytes. Description: hemolysis test by the method of Gottfried et al. The data set is classed as cell-based. The conditions noted are these: 5% human albumin, relative to without albumin. As to the method:
as §2

Data set [18] can be described thus: hemolysis test by the method of Gottfried et al. The data set is classed as cell-based, human. To be noted: human, erythrocytes. The method, then:
as §2

For data set [19], the system named is Penicillium. The experiment in a line: antifungal activity, serial dilution method. The data set is classed as cell-based, Penicillium niger. The conditions noted are these: Penicillium niger (blue mold); 1% glucose-bouillon agar; read-out: MIC.

`CCCCCCCC/C=C\CCCCCCCCOCCOCCOP(=O)([O-])OCC[N+](C)(C)C` [Example 7, 3,6-Dioxatetracos-15(Z)-enyl 2-trimethylammonioethyl phosphate]: the MIC in data set [1] amounted to 25 µg/mL; in [3], 12.5 µg/mL; in data set [8], 3.12 µg/mL; in [9] it was 0.4 µg/mL; in [10] it was 6.25 µg/mL; in data set [12] it was 25 µg/mL. For the same molecule, the MIC in data set [13] and in data set [15] was 25 µg/mL in each case. The IC50 in data set [2] fell in the range of 1 to 2 µg/mL; in data set [4], 8 to 11 µg/mL; in [14] it was 2 to 3 µg/mL. The zone of inhibition at 3000 µg/mL is more than 20 mm in data set [5], more than 20 mm in [6] and 10 to 20 mm in data set [7]. The deaths result in data set [11] is on record as “no deaths”.

A word on the HC50: it is the concentration giving 50% haemolysis. With `CCCCCCCCCCCCOCCOCCOP(=O)([O-])OCC[n+]1ccccc1` [Example 15, 2-[2-Dodecyloxy)ethoxy]ethyl 2-pyridinioethyl phosphate], the MIC was 25 µg/mL in data set [1]; 50 µg/mL in data set [3]; 25 µg/mL in data set [16]; 25 µg/mL in data set [8]; more than 4 µg/mL in data set [9]; 12.5 µg/mL in data set [10]. The MIC in data set [12] worked out at 25 µg/mL; in data set [13], 25 µg/mL; in data set [15], 12.5 µg/mL; in data set [19], 12.5 µg/mL. Besides, the figures for the zone of inhibition at 3000 µg/mL in data set [5], in data set [6] and in data set [7] were 10 to 20 mm, more than 20 mm and 10 to 20 mm, respectively. Also, the “50% hemolytic concentration in the presence of human albumin” value in data set [17] is “several times as high”. Further, the HC50 in data set [18] was approximately 10 µg/mL.
